In PMC10216263, “Favorable Preclinical Pharmacological Profile of a Novel Antimalarial Pyrrolizidinylmethyl Derivative of 4-amino-7-chloroquinoline with Potent In Vitro and In Vivo Activities” (Biomolecules, 2023):
Like-named read-outs stand apart in the source and are kept apart here.

Key:
[1] = system: P. falciparum 3D7 (CQ-S); experiment: In vitro combination study (isobologram, ∑FIC); type: cell-based
[2] = target: CYP2C19 (Homo sapiens, UniProt P33261); experiment: in vitro
[3] = system: P. falciparum K1 (CQ-R); experiment: In vitro antimalarial activity, [3H]-hypoxanthine incorporation (LSHTM); type: cell-based; details: Plasmodium falciparum, K1; 72 h, [3H]-hypoxanthine incorporation, mean of 3 experiments; read-out: P. falciparum IC50 nM, K1 (CQ-R)
[4] = system: Salmonella typhimurium TA98, TA100 and Escherichia coli WP2 uvrA; experiment: Bacterial Reverse Mutation Assay, overall; details: with or without rat liver S9, up to 1000 per plate
Experimental: using the preincubation method (30 min, 37°C) with and without phenobarbital-5,6-benzoflavone induced
MG3 was dissolved in distilled water (H2O) at
the maximum concentration of 40 mg/mL and tested in a preliminary range-finding test in all strains of
metabolic activation to determine the toxicity of the compound.

[5] = in vivo; design: species or system male Sprague Dawley rats; details: male, Sprague Dawley, rat
Experimental: The formulations were prepared on the days of dosing, immediately before administration. MG3 for IV administration was formulated as in situ dimesylate salt, in 5% of glucose solution (4 mg/mL nominal concentration), while for oral administration it was prepared by suspending the test item in 0.5% methocel solution (v/v) (6 mg/mL nominal concentration). […] After 5-days postoperative recovery period, MG3 was administered and serial blood samples (about 0.3 mL) were collected from femoral vein using heparinized syringe at 5, 15, and 30 min, 1, 3, 6, 24-, 48-, 72- and 96-hours post-dosing after IV administration and at 15, and 30 min, 1, 3, 6 and 24-, 48-, 72- and 96-hours post-dosing after oral administration. The samples were then transferred into pre-cooled tubes protected from light and centrifuged at 3000 rpm for 4 min at +4 °C to collect plasma, and single aliquots of plasma were stored at −80 °C until analysis. Sample analysis: 400 µL of methanol was added to 10 µL of plasma in a 96-well plate; after centrifugation for 15 min at 2000 rpm at 6 °C, an aliquot of 360 µL of supernatant was transferred into a new 96-well plate and dried at 40 °C. Sample extracts were reconstituted with a volume of 150 µL of a mixture solution of 10 mM ammonium formate pH 3.5:methanol (90:10; v/v) and centrifuged for 3 min at 2000 rpm at 6 °C and the supernatant was injected onto the LC-MS/MS system. A HP1100 HPLC with a Synergy 4 um Hydro-RP 80A 2.0 × 50 mm column, coupled with AB/MDS Sciex 4000 QTrap in positive ion mode was utilized for analysis; 10 µL samples were injected, a gradient with 10 mM ammonium formate pH 3.5 and methanol was utilized. Data obtained were analyzed using the non-compartmental approach (Watson package v. 6.4.0.04, Thermo Fisher Scientific, Waltham, MA, USA).

[6] = system: P. falciparum 3D7 (CQ-S); experiment: In vitro antimalarial activity, [3H]-hypoxanthine incorporation (LSHTM); type: cell-based; details: Plasmodium falciparum, 3D7; 72 h, [3H]-hypoxanthine incorporation, mean of 3 experiments; read-out: P. falciparum IC50 nM, 3D7 (CQ-S)
[7] = CD1, mouse, in vivo, po, 10 mg/kg
[8] = Tissue distribution in rat; type: in vivo, female Sprague Dawley rats; details: single oral 120 mg/kg
Experimental: Female Sprague Dawley rats (Charles River, Italy) (2–4/time points) were orally administered with a single dose of 120 mg/kg of MG3 at a constant dose volume of 10 mL/kg; dose and gender were selected based on previous toxicological studies. Two female rats were included as untreated controls. Plasma samples and tissues, i.e., adrenal glands, hearth, kidney, liver, lung, lymph nodes, spleen, ovaries, thymus, and skeletal muscle were collected at 4, 24, 48, 72 and 96 h after administration by animals killed by exsanguination under sodium thiopental anesthesia. Blood was put in heparinized plastic tubes kept on ice-water bath, then centrifuged (10 min, 1200 rpm, +4 °C). One aliquot of about 100 µL of plasma was stored at –80 °C until analysis. Samples of selected organs/tissues were collected, put in plastic cassettes and frozen over liquid nitrogen. Then, organs were thawed out, weighted, and sliced. Homogenates were prepared with ultrasonication on ice in Dulbecco buffer (10 μL/mg of tissue). The addition of 400 μL of methanol to 10 μL of homogenate in a 96-well plate allowed the precipitation of proteins. After capping and vortex mixing, the plate was centrifuged for 15 min at 3700 rpm at 6 °C, and an aliquot of 360 μL of supernatant transferred to a new plate and dried down under nitrogen stream (40 °C). The extract was reconstituted in 150 μL of 10 mM ammonium formate pH 3.5: methanol (90:10, v/v) and analyzed using the LC-MS-MS method, as described in Pharmacokinetic studies in rat paragraph. 1 ng/mL and 10 ng/g were the lower limits of quantitation for plasma and tissue, respectively.

[9] = Chemical stability in incubation medium; type: physicochemical; details: 90 min at 37 °C, Leibovitz L-15 medium
Experimental: An automatic liquid handling system (Multiprobe II EX, Packard) was used for sampling. At 0, 10, 20, 30, 60 and 90 min, […] aliquots of the incubates were taken and added with […] of ice-cold ACN and […] of 1 µM warfarin in ACN (internal standard), and samples centrifuged at 2000 rpm for 20 min. The analysis of supernatant was conducted using LC-MS/MS. MG3 was incubated in the medium under the same conditions to evaluate the chemical stability; 7-ethoxycoumarin (7-ETC) 1 µM and 7-hydroxycoumarin (7-HC) 30 µM were utilized as positive controls for Phase I and Phase II activities. […] Half-life and CLint were determined from the concentration (counts) remaining at the different sampling points using the LC-MS/MS method. The slope was calculated using linear regression analysis of the curve (natural logarithmic area of the compound remaining against the time) and converted into the half-life (t1/2) and CLint expressed as µL/min/million cells and mL/min/kg, respectively.

[10] = system: P. falciparum field isolates; experiment: Chemosensitivity assay on field isolates; type: cell-based
Experimental: The 10 P. vivax and 10 P. falciparum isolates used in this study were obtained from Mae Sod District, Tak Province, Thailand. […] Isolates were collected in 5 mL lithium-heparinized tubes and sent to the laboratory within 5–6 h.

CYP2C19, sequence (P33261 whole entry): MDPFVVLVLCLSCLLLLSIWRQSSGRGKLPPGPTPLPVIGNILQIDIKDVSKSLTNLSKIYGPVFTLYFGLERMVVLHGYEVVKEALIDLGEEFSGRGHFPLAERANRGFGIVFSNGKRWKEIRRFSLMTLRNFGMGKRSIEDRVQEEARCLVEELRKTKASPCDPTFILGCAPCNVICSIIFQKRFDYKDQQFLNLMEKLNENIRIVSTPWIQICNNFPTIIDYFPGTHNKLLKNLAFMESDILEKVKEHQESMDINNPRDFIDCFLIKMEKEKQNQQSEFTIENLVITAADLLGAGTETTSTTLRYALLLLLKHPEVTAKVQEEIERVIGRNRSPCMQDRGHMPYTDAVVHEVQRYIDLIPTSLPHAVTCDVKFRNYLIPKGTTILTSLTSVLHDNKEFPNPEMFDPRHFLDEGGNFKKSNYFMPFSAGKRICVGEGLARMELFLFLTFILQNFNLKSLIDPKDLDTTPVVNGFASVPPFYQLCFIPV

Compound: Clc1ccc2c(NCC34CCCN3CCC4)ccnc2c1 [MG3, 7-Chloro-N-((hexahydro-1H-pyrrolizin-7a-yl)methyl)quinolin-4-amine]
- Mean ∑FIC50 (95% CI) ([1]; in combination with ASN, 3D7, IC50 level): 1.43 (1.30 – 1.55)
- Mean ∑FIC50 (95% CI) ([1]; in combination with DHA, 3D7, IC50 level): 1.49 (1.33 – 1.65)
- Mean ∑FIC50 (95% CI) ([1]; in combination with RKA-182, 3D7, IC50 level): 1.45 (1.17 – 1.73)
- interaction (isobologram) ([1]; in combination with azitromycin, 3D7 (CQ-S)): additive
- inhibition at 3 µM [2]: < 3%
- IC50 [3]: 21.2 nM
- mutagenicity judgement [4]: non-mutagenic
- AUC(0-inf) ([5]; iv, 10 mg/kg): 1300 ± 223 ng·h/mL
- AUC(0-t) ([5]; iv, 10 mg/kg): 1290 ± 217 ng·h/mL
- Cmax ([5]; iv, 10 mg/kg): 395 ± 118 ng/mL
- Vd ([5]; iv, 10 mg/kg): 59.9 L/kg
- clearance ([5]; iv, 10 mg/kg): 139 ± 20.2 mL/min/kg
- half-life ([5]; iv, 10 mg/kg): 462 ± 36 min
- tlast ([5]; iv, 10 mg/kg): 48.0 ± 0.1 h
- AUC(0-inf) ([5]; po, 30 mg/kg): 4400 ± 633 ng·h/mL
- AUC(0-t) ([5]; po, 30 mg/kg): 4360 ± 630 ng·h/mL
- Cmax ([5]; po, 30 mg/kg): 213 ± 23.7 ng/mL
- half-life ([5]; po, 30 mg/kg): 642 ± 72 min
- still detectable in the plasma up to ([5]; po, 30 mg/kg): 72 to 96 h
- tlast ([5]; po, 30 mg/kg): 80.0 ± 13.9 h
- IC50 [6]: 12.6 nM
- AUClast [7]: 41,067 min*ng/mL
- tissues with the highest concentration [8]: lungs and ovaries
- concentration in tissues versus plasma ([8]; all time points 4–96 h): higher than in plasma
- detected in all the analyzed tissues up to ([8]; post dose): 96 h
- chemical stability in incubation medium alone [9]: did not show any degradation
- IC50 ([10]; Plasmodium falciparum, read-out: P. falciparum IC50 nM, Field Isolates, mean of 10 field isolates, Thai Burmese Border): < 15 nM
- IC50 ([10]; read-out: P. falciparum IC50 nM, Field Isolates, mean of 10 field isolates, Thai Burmese Border): 20.9 nM
